{"source": "paper PMC5389830", "about": "“Longitudinal monitoring of Gaussia and Nano luciferase activities to concurrently assess ER calcium homeostasis and ER stress in vivo” (PLoS ONE, 2017)", "molecular_target": "T1, GLuc (Gaussia luciferase) (Gaussia princeps (in: crustaceans), UniProt Q9BLZ2)", "T1 construct": "secreted GLuc without SERCaMP peptide, in culture medium of transfected SH-SY5Y cells", "T1 sequence (Q9BLZ2 18-185)": "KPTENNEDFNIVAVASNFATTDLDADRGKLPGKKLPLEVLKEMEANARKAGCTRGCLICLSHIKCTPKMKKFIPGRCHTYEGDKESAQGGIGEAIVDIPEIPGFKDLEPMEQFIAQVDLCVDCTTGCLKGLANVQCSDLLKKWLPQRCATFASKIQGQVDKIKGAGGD", "assay": "luminescence, culture medium of transfected SH-SY5Y cells", "type": "biochemical", "conditions": "8 μM coelenterazine; flash kinetics", "data": [{"smiles": "Oc1ccc(Cc2nc3c(Cc4ccccc4)nc(-c4ccc(O)cc4)cn3c2O)cc1", "note": "[coelenterazine]", "values": [{"measurement": "luminescence, culture medium of transfected SH-SY5Y cells", "result": "GLuc and secNLuc both showed activity towards CTZ, with GLuc exhibiting flash kinetics"}]}]}
